Columns and labels:
[1] = target: T1, human Kv1.3 (Homo sapiens, UniProt P22001); assay: Kv1.3 Autopatch Electrophysiology (whole cell patch-clamp, stably transfected CHO cells); assay type: cell-based; conditions: compound 1 μM, step to +30 mV for 500 ms, inhibition of total charge relative to control, room temperature; for inhibition at 1 µM: CHO, read-out: hKv1.3 % inh.
T1 construct: expressed in transfected cells; host or cells: stably transfected cells grown in medium for CHO cells
Experimental: Cells stably transfected with cDNA for human Kv1.3 (in pcDNA3.1) were grown in Ex-cell 302 serum-free medium for CHO cells, supplemented with 10 μl/ml [100×] glutamine, 500 μg/ml G418 ([…]), and 1% HT supplement (50×, hypoxanthine and thymidine). Compounds were tested on these cells using the AutoPatch technology in whole cell mode.
The external bathing solution contained (in mM): 150 NaCl, 10 KCl, 1 MgCl2, 3 CaCl2, 10 HEPES, pH 7.4 with NaOH. Patch pipettes were filled with an electrode solution of composition (in mM): 100 K-Gluconate, 20 KCl, 1 MgCl2, 1 CaCl2, 10 HEPES, 11 EGTA, 5 ATP-Na2, 2 Glutathione pH 7.2 with KOH.
Compounds were dissolved in DMSO (100%) and made up in the external bather at a concentration of 1 μM immediately prior to use. All experiments were conducted at room temperature.
A cell suspension (10 ml), with a density of 6×10^6 cells, was aliquoted into a 15 ml centrifuge tube and stored at 4° C. before use. Prior to use a tube was taken and centrifuged at 1000 rpm for 4 mins at room temperature. The supernatant was then discarded, leaving a cell pellet at the bottom of the tube. The pellet was then resuspended using 1 ml of cold (4° C.), filtered (0.22 μm), 0.05% BSA/bather solution (0.05 g BSA/100 ml bather). The bottom of the tube was manually agitated followed by gentle tituration. The cell suspension was then placed in the AutoPatch™ temperature controlled cell-hotel at 14° C. and regularly titurated.
A length of Teflon capillary tubing was dipped into the cell suspension solution, and a column of fluid was taken up by negative pressure. The column of fluid was in electrically connectivity with a Ag/AgCl reference electrode. Borosilicate glass patch pipettes (from 1.5 mm OD, thin-walled filamented, GC150-TF capillary glass, Harvard) were pulled using a DMZ pipette puller (Zeitz Instruments), and were back-filled using the internal pipette solution, being careful that no bubbles remained at the tip or in the body of the pipette. Patch pipettes typically had resistances of 2.5-3.5 MΩ. Once filled, the pipette tip and a proportion of the shaft (˜15 mm) were dipped into Sigmacote (Sigma). The recording pipettes were placed in a multiwell array and mounted on the AutoPatch™ machine. Automated patch-clamping and drug-application was initiated by the operator, but thereafter AutoPatch.exe continued the experiment providing that pre-set conditions and criteria were satisfied.
Whole cell patch-clamp recordings were made using the AutoPatch™ rig, which incorporated an EPC9 or EPC10 amplifier (HEKA, Germany) under control of Pulse software (v8.54 or v8.76, HEKA, Germany), a cell applicator, automated drug application system (DAS), valve controller (VF1) and a suction device all at room temperature. This equipment was completely under the control of AutoPatch.exe and operator intervention was only made when there was a requirement to refill the bather reservoirs or to prevent the loss of a cell due to a technical error.
Qualification stages prior to perfusion and drug application ensured that the observed current met the criteria for the experiment. Cells were continuously perfused with external solution at a flow rate of ˜2 ml/minute.
Electrophysiology voltage-step protocols and analysis of data was performed as follows. Data were sampled at 5 kHz, and filtered with a −3 dB bandwidth of 2.5 kHz. Cells were held at a voltage of −80 mV. Currents were evoked by a voltage step to +30 mV for 500 ms in duration applied every 15 s. Online analysis of the hKv1.3 current during the application of compounds was performed by the Pulse (v8.54 or v8.76, HEKA, Germany), Excel (Microsoft, USA) and AutoPatch™ software, with the total charge measured during the whole of voltage step Inhibition of charge movement in the presence of drug was calculated relative to control.

[2] = target: hKv1.5 (Homo sapiens, UniProt P22460); assay: Kv1.5 Autopatch Electrophysiology (whole cell patch-clamp); assay type: cell-based; conditions: compound 1 μM, step to 0 mV for 1000 ms, total charge, room temperature (22-24° C.); for inhibition at 1 µM: read-out: hKv1.5 % inh.
Sequence of hKv1.5 (P22460 whole entry): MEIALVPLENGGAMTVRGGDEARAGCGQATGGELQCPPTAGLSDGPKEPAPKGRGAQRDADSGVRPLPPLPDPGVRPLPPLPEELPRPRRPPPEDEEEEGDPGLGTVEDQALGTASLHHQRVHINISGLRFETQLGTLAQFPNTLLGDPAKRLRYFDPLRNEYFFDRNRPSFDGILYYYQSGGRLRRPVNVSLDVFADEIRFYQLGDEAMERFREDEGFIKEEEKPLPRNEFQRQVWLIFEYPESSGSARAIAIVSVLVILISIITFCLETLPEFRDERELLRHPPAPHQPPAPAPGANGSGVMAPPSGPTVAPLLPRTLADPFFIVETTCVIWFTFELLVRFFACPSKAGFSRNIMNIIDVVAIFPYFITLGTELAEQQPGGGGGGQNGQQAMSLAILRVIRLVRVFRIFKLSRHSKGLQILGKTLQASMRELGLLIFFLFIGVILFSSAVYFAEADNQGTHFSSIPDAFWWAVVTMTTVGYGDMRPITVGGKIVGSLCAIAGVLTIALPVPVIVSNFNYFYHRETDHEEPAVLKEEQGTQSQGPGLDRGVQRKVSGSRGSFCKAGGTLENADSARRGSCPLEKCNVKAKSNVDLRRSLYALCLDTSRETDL
Experimental: The external bathing solution contained (in mM): 150 NaCl, 10 KCl, […], 3 MgCl2, 1 CaCl2, 10 HEPES, pH 7.4. Patch pipettes were filled with an electrode solution of composition (in mM): 160 KCl, 0.5 MgCl2, 10 HEPES, 1 EGTA, pH 7.4 with KOH.
Compounds were dissolved in DMSO (100%) and made up in the external bather at a concentration of 1 μM. All experiments were conducted at room temperature (22-24° C.).
A cell suspension (10 ml), with a density of 100,000 cells/ml, was aliquoted into a 15 ml centrifuge tube and transferred to an incubator (37° C., 5% CO2) for approximately one hour before use. Following 60 min incubation, a tube was taken and centrifuged at 1000 rpm for 4 mins at room temperature. 9.5 ml supernatant was thence discarded, leaving a cell pellet at the bottom of the tube. The pellet was then resuspended using 100 μl of cold (4° C.), filtered (0.22 μm), 0.2% BSA/bather solution (0.02 g BSA/10 ml bather). The bottom of the tube was manually agitated gently until the solution became cloudy with cells. The 100 μl cell resuspension solution was then stored on the bench at 4° C. (using a Peltier-based temperature control device) until used.
A length of capillary glass (1B150E-4, WPI) was dipped into the cell suspension solution, such that ˜3 cm column of fluid was taken up by capillary action. A Ag/AgCl wire was dropped into the non-dipped end of the capillary also. The outside of the solution-filled end of the capillary was then dried and the capillary was loaded into the AutoPatch™
Borosilicate glass patch pipettes (from 1.5 mm OD, thin-walled filamented, GC150-TF capillary glass, Harvard) were pulled using a DMZ pipette puller (Zeitz Instruments), and were back-filled using the internal pipette solution, being careful that no bubbles remain at the tip or in the body of the pipette. Patch pipettes typically had resistances of 2.3-3.5 MΩ. Once filled, the pipette tip and a proportion of the shaft (˜15 mm) were dipped into Sigmacote (Sigma). The recording pipette was then loaded into the AutoPatch™. Automated patch-clamping was initiated by the operator, but thereafter AutoPatch.exe continued the experiment providing that pre-set conditions and criteria were satisfied.
Whole cell patch-clamp recordings were made using the AutoPatch™ rig, which incorporated an EPC9 amplifier (HEKA, Germany) under control of Pulse software (v8.54, HEKA, Germany), a motion controller with 2 translators (Newport, UK), valve controller (VF1) and a c-level suction device all at room temperature (22-24° C.). This equipment was completely under the control of AutoPatch.exe and operator intervention was only made when there was a requirement to refill the drug reservoirs or to prevent the loss of a cell due to a technical error. Cells with an Rseries greater than 18 MΩ were discounted from the experiment.
Qualification stages prior to perfusion and drug application ensured that the observed current met the criteria for the experiment. Only those cells with an IK>500 pA were used for experiments. Cells were continuously perfused with external solution at a flow rate of 1.8-2 ml/minute. […] Online analysis of the hKv1.5 current during the application of compounds was performed by the AutoPatch™ software. Voltage-step protocols and analysis of data was performed as described for conventional electrophysiology.
Electrophysiology voltage-step protocols and analysis of data was performed as follows. Data was sampled at 5 kHz, and filtered with a −3 dB bandwidth of 2.5 kHz. Cells were held at a voltage of −80 mV. Currents were evoked to a voltage step for 1000 ms in duration at 0 mV every 5 s. Currents were analysed using Pulsefit software (v8.54, HEKA, Germany), with the total charge measured during the whole of the voltage step. All other plots were produced using Igor Pro (WaveMetrics).

T1 sequence (P22001 whole entry): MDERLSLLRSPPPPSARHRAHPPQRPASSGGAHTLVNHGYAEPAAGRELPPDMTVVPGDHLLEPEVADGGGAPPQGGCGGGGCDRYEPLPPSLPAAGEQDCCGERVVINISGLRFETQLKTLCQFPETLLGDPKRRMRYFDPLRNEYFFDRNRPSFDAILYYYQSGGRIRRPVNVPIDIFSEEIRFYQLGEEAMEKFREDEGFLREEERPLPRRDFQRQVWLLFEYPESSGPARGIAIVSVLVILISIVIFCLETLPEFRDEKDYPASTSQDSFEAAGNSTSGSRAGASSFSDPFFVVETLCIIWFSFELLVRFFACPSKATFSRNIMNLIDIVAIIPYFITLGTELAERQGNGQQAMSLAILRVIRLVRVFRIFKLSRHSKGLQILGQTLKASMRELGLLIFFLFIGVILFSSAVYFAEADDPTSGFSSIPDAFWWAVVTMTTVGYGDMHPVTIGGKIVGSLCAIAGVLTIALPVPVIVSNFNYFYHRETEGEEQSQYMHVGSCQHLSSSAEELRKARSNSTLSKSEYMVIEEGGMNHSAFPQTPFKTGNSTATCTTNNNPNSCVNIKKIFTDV

Molecule	inhibition at 1 µM [1] [%]	inhibition at 1 µM [2] [%]	hKv1.3 % inh. [1] [%]	hKv1.5 % inh. [2] [%]
O=S(=O)(c1ccccc1)N(Cc1ccccc1)c1cccc(N2CCN(c3ccccc3)CC2)c1 [Example 5, N-Benzyl-N-[3-(4-phenyl-piperazin-1-yl)-phenyl]-benzenesulfonamide]	88	91	–	–
Cn1ccc(S(=O)(=O)N(Cc2ccc(Cl)cc2)c2cccc(OCC(=O)NC3CC3)c2)n1 [Example 51, 2-{3-[(4-Chloro-benzyl)-(1-methyl-1H-pyrazole-3-sulfonyl)-amino]-phenoxy}-N-cyclopropyl-acetamide]	83	72	–	–
N-(4-Chloro-benzyl)-3-cyano-4-fluoro-N-[3-(2-oxo-imidazolidin-1-yl)-phenyl]-benzenesulfonamide [Example 45]	–	–	100	95
1-Methyl-1H-pyrazole-3-sulfonic acid (4-chloro-benzyl)-[3-(2-oxo-pyrrolidin-1-yl)-phenyl]-amide [Example 38]	–	–	96	71
Cn1ccc(S(=O)(=O)N(Cc2ccc(Cl)cc2)c2cccc(OCC(=O)NC3CCC3)c2)n1 [Example 50, 2-{3-[(4-Chloro-benzyl)-(1-methyl-1H-pyrazole-3-sulfonyl)-amino]-phenoxy}-N-cyclobutyl-acetamide]	94	79	–	–
Cn1cncc1C(=O)Nc1cccc(N(Cc2ccccc2)S(=O)(=O)c2ccccc2)c1 [Example 3, 3-Methyl-3H-imidazole-4-carboxylic acid [3-(benzenesulfonyl-benzyl-amino)-phenyl]-amide]	90	73	–	–
1-Methyl-1H-pyrazole-3-sulfonic acid (4-chloro-benzyl)-[3-(2-oxo-imidazolidin-1-yl)-phenyl]-amide [Example 42]	–	–	99	77
O=S(=O)(c1ccccc1)N(Cc1ccccc1)c1cccc(N2CCOCC2)c1 [Example 2, N-Benzyl-N-(3-morpholin-4-yl-phenyl)-benzenesulfonamide]	76	62	–	–

— US8372840B2, “Potassium channel blockers” (Xention Limited, priority 2008, dated 2013)
